Assay results taken from ChEMBL document CHEMBL1201862, “PubChem BioAssay data set” (2004).
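A five-concentration, 48-hour dose response in 96-well plates underlies each endpoint, interpolated linearly between surrounding concentrations. GI50 = concentration required for 50% inhibition of growth.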 Activity calls are given as the source filed them. Rule as the data show it: active = GI50 up to about 1.1 µM and inactive = higher.

Key:
Assay in all cases: inhibition of tumour cell growth, NCI panel, 48 h
786-0 = system: 786-0
A498 = system: A498
A549 = system: A549
CAKI-1 = system: CAKI-1
CCRF-CEM = system: CCRF-CEM
COLO 205 = system: COLO 205
DLD-1 = system: DLD-1
DMS-273 = system: DMS-273
EKVX = system: EKVX
HCC 2998 = system: HCC 2998
HCT-116 = system: HCT-116
HCT-15 = system: HCT-15
HL-60 = system: HL-60
HOP-18 = system: HOP-18
HOP-62 = system: HOP-62
HT-29 = system: HT-29
IGROV-1 = system: IGROV-1
K562 = system: K562
KM-20L2 = system: KM-20L2
KM12 = system: KM12
LXFL 529 = system: LXFL 529
M14 = system: M14
M19-MEL = system: M19-MEL
MOLT-4 = system: MOLT-4
Malme-3M = system: Malme-3M
NCI-H226 = system: NCI-H226
NCI-H23 = system: NCI-H23
NCI-H460 = system: NCI-H460
NCI-H522 = system: NCI-H522
OVCAR-3 = system: OVCAR-3
OVCAR-4 = system: OVCAR-4
OVCAR-5 = system: OVCAR-5
OVCAR-8 = system: OVCAR-8
RPMI-8226 = system: RPMI-8226
RXF 393 = system: RXF 393
SF-268 = system: SF-268
SF-295 = system: SF-295
SF-539 = system: SF-539
SK-MEL-28 = system: SK-MEL-28
SK-MEL-2 = system: SK-MEL-2
SK-MEL-5 = system: SK-MEL-5
SK-OV-3 = system: SK-OV-3
SNB-19 = system: SNB-19
SNB-75 = system: SNB-75
SNB-78 = system: SNB-78
SW-620 = system: SW-620
TK-10 = system: TK-10
U-251 = system: U-251
UACC-257 = system: UACC-257
UACC-62 = system: UACC-62
ACHN = system: ACHN
HOP-92 = system: HOP-92
LOX IMVI = system: LOX IMVI
SN12C = system: SN12C
SR = system: SR
UO-31 = system: UO-31
XF498 = system: XF498
DMS-114 = system: DMS-114

Measured: GI50

CC1(C)C(c2ccccc2)=NN(O)c2ccccc21
> 100 µM: HCT-15
inactive: 786-0 > 100 µM | A498 > 100 µM | A549 > 100 µM | CAKI-1 > 100 µM | CCRF-CEM > 100 µM | COLO 205 > 100 µM | DLD-1 > 100 µM | DMS-273 > 100 µM | EKVX > 100 µM | HCC 2998 > 100 µM | HCT-116 > 100 µM | HL-60 > 100 µM | HOP-18 > 100 µM | HOP-62 > 100 µM | HT-29 > 100 µM | IGROV-1 > 100 µM | K562 > 100 µM | KM-20L2 > 100 µM | KM12 > 100 µM | LXFL 529 > 100 µM | M14 > 100 µM | M19-MEL > 100 µM | MOLT-4 > 100 µM | Malme-3M > 100 µM | NCI-H226 > 100 µM | NCI-H23 > 100 µM | NCI-H460 > 100 µM | NCI-H522 > 100 µM | OVCAR-3 > 100 µM | OVCAR-4 > 100 µM | OVCAR-5 > 100 µM | OVCAR-8 > 100 µM | RPMI-8226 > 100 µM | RXF 393 > 100 µM | SF-268 > 100 µM | SF-295 > 100 µM | SF-539 > 100 µM | SK-MEL-28 > 100 µM | SK-MEL-2 > 100 µM | SK-MEL-5 > 100 µM | SK-OV-3 > 100 µM | SNB-19 > 100 µM | SNB-75 86.1 µM | SNB-78 > 100 µM | SW-620 > 100 µM | TK-10 > 100 µM | U-251 > 100 µM | UACC-257 > 100 µM | UACC-62 > 100 µM

C1=Nc2ccccc2Cn2nncc21
inactive: A549 > 100 µM | ACHN > 100 µM | CAKI-1 29.9 µM | CCRF-CEM 49.9 µM | COLO 205 > 100 µM | DLD-1 57.3 µM | DMS-273 > 10 µM | EKVX 98.2 µM | HCC 2998 99.5 µM | HCT-116 35.7 µM | HL-60 25.4 µM | HOP-18 74.8 µM | HOP-62 > 100 µM | HOP-92 54.7 µM | HT-29 45.6 µM | IGROV-1 67.5 µM | K562 35.2 µM | KM-20L2 > 100 µM | KM12 47.1 µM | LOX IMVI 46.9 µM | LXFL 529 98.2 µM | M14 67.3 µM | M19-MEL > 100 µM | MOLT-4 > 100 µM | Malme-3M 63 µM | NCI-H226 > 100 µM | NCI-H23 > 100 µM | NCI-H460 > 100 µM | NCI-H522 32.7 µM | OVCAR-3 > 100 µM | OVCAR-4 > 100 µM | OVCAR-5 > 100 µM | OVCAR-8 > 100 µM | RPMI-8226 > 100 µM | RXF 393 > 100 µM | SF-268 > 100 µM | SF-539 28.6 µM | SK-MEL-28 80.7 µM | SK-MEL-2 78.2 µM | SK-MEL-5 > 10 µM | SK-OV-3 > 100 µM | SN12C > 100 µM | SNB-19 > 100 µM | SR 60.3 µM | SW-620 34 µM | TK-10 > 100 µM | U-251 26 µM | UACC-62 23 µM | UO-31 89.1 µM | XF498 > 100 µM
41.8 µM: HCT-15

Cc1ccc([N+](=O)[O-])cc1NC(=O)C(=O)Cc1occc(=O)c1O
> 100 µM: HCT-15
inactive: 786-0 > 100 µM | A498 > 100 µM | A549 > 100 µM | ACHN > 100 µM | CAKI-1 > 100 µM | CCRF-CEM > 100 µM | COLO 205 > 100 µM | DLD-1 > 100 µM | DMS-114 > 100 µM | EKVX > 100 µM | HCC 2998 > 100 µM | HL-60 > 100 µM | HOP-18 > 100 µM | HOP-62 > 100 µM | HOP-92 > 100 µM | HT-29 > 100 µM | IGROV-1 > 100 µM | K562 > 100 µM | KM-20L2 > 100 µM | KM12 > 100 µM | LOX IMVI > 100 µM | M19-MEL > 100 µM | NCI-H226 > 100 µM | NCI-H460 > 100 µM | NCI-H522 > 100 µM | OVCAR-3 > 100 µM | OVCAR-5 > 100 µM | OVCAR-8 > 100 µM | RPMI-8226 > 100 µM | RXF 393 > 100 µM | SF-268 > 100 µM | SF-295 > 100 µM | SF-539 > 100 µM | SK-MEL-28 > 100 µM | SK-MEL-5 > 100 µM | SK-OV-3 > 100 µM | SN12C > 100 µM | SNB-19 > 100 µM | SNB-75 > 100 µM | SR > 100 µM | SW-620 > 100 µM | TK-10 > 100 µM | U-251 > 100 µM | UACC-62 > 100 µM | UO-31 > 100 µM | XF498 > 100 µM
